According to patent publication US20240034722A1, “PRETARGETING IMAGING AGENTS” (Eli Lilly and Company, priority 2020, published 2024):
Where “and” joins values, the source holds several entries; their conditions need not be identical. Equal entries are not always repeated. Entries after “also recorded” stand apart in the source; their conditions may differ.

How the values were obtained:
[1] = Stability of the tetrazine moiety in ascorbate formulation; type: physicochemical
[2] = Dynamic micro PET-CT imaging, tracer uptake in brain, muscle and bone; type: in vivo, CD-1 mice; conditions: CD-1 male mice; for Bone uptake throughout the scan period (defluorination): 60-min scan; for Uptake throughout the periphery of the body (liver, kidneys, heart): PET; for Brain uptake after steady clearance of tracer: at 59.5 min post injection; for Clearance from the brain: by 60 minutes post injection, relative to muscle; for Crossing of the blood-brain-barrier / Peak brain uptake / Time of peak brain uptake post injection: dynamic PET; for Peak brain uptake / Time of peak brain uptake post injection: i.v.
Description: (§1) A Siemens Inveon® Multimodality Scanner (Siemens, Germany) is used for micro PET-CT imaging. Male CD-1 (6-week-old, ˜30 g) mice are anesthetized with 3% isoflurane/97% oxygen and placed on the bed of the scanner. The mice are administered [^18F]N-(4-(1,2,4,5-tetrazin-3-yl)benzyl)-2-fluoronicotinamide via a bolus intravenous tail vein injection (˜350 ρCi in a total volume of 150 μL saline). A total of four dynamic PET scans are conducted, followed by a short high-resolution CT scan for anatomical registration. PET images are generated for each minute of the acquisition time. Uptake of the tracer in the brain, muscle, and bone are determined by visually drawing regions of interest (ROIs) based on the fused PET/CT images and the corresponding activity values are determined using the Inveon® Research Workplace software. All values are represented as % injected dose per gram (% ID/g).
as §1, with “g) mice were anesthetized with” for “g) mice are anesthetized with”, “are administered [^18F]N-(4-(1,2,4,5-tetrazin-3-yl)benzyl)-6-fluoropicolinamide via a” for “are administered [^18F]N-(4-(1,2,4,5-tetrazin-3-yl)benzyl)-2-fluoronicotinamide via a”, “vein injection (˜300 ρCi in” for “vein injection (˜350 ρCi in”
as §1, with “PET/CT” for “PET-CT”, “30-40” for “˜30”, “[^18F]N-(4-(1,2,4,5-tetrazin-3-yl)benzyl)-6-fluoronicotinamide” for “[^18F]N-(4-(1,2,4,5-tetrazin-3-yl)benzyl)-2-fluoronicotinamide”, “(˜300” for “(˜350”, “two” for “four”

ASO-TCO conjugate = conditions: rats given ASO-TCO intrathecally, tracer i.v. 24 and 168 hours later, static PET-CT 75-90 minutes after tracer; cited from earlier work
[3] = wild type mice, dynamic PET, by 10 min post-injection; cited from earlier work
[4] = listed as [^18F]N-(4-(1,2,4,5-tetrazin-3-yl)benzyl)-2-fluoronicotinamide
[5] = listed as [^18F]N-(4-(1,2,4,5-tetrazin-3-yl)benzyl)-6-fluoropicolinamide

| Reduction of the tetrazine moiety by ascorbate formulation [1] | Bone uptake throughout the scan period (defluorination) [2] | Uptake throughout the periphery of the body (liver, kidneys, heart) [2] | Brain uptake after steady clearance of tracer [2] [% ID/g] | Crossing of the blood-brain-barrier [2] | Peak brain uptake [2] [% ID/g] | Time of peak brain uptake post injection [2] | Compound | Clearance from the brain [2] | other results |
| --- | --- | --- | --- | --- | --- | --- | --- | --- | --- |
| readily reduced | – | – | – | – | – | – | O=C(NCc1ccc(-c2nncnn2)cc1)c1cccc(F)n1 [Example 3, N-(4-(1,2,4,5-tetrazin-3-yl)benzyl)-6-fluoropicolinamide] | – | – |
| – | remained low | observed | 1.1 | readily cross the blood-brain-barrier | 4.3±0.3 | approximately 2 min | O=C(NCc1ccc(-c2nncnn2)cc1)c1cccc([18F])n1 [Example 4, [^18F]N-(4-(1,2,4,5-tetrazin-3-yl)benzyl)-6-fluoropicolinamide] | baseline levels defined by uptake in the muscle | Clearance from the brain [2, 5]: near background levels (muscle); Peak brain uptake [2, 5]: 4.3±0.3 % ID/g and 4.3 % ID/g; Time of peak brain uptake post injection [2, 5]: 2.5 min; Crossing of the blood-brain-barrier [2, 5]: readily cross the blood-brain-barrier; also recorded: readily crosses the blood-brain-barrier |

Further lines, the compound ahead of its results:

| Compound | Reduction of the tetrazine moiety by ascorbate formulation [1] | Bone uptake throughout the scan period (defluorination) [2] | Uptake throughout the periphery of the body (liver, kidneys, heart) [2] | Brain uptake after steady clearance of tracer [2] [% ID/g] | Crossing of the blood-brain-barrier [2] | Peak brain uptake [2] [% ID/g] | Time of peak brain uptake post injection [2] | Clearance from the brain [2] | other results |
| --- | --- | --- | --- | --- | --- | --- | --- | --- | --- |
| O=C(NCc1ccc(-c2nncnn2)cc1)c1cccnc1F [Example 1, N-(4-(1,2,4,5-tetrazin-3-yl)benzyl)-2-fluoronicotinamide] | readily reduced | – | – | – | – | – | – | – | – |
| O=C(NCc1ccc(-c2nncnn2)cc1)c1cccnc1[18F] [Example 2, [^18F]N-(4-(1,2,4,5-tetrazin-3-yl)benzyl)-2-fluoronicotinamide] | readily reduced | remained low | observed | 1.2 | readily cross the blood-brain-barrier | 3.3±0.4 | approximately 2 min | baseline levels defined by uptake in the muscle | Clearance from the brain [2, 4]: near background levels (muscle); Peak brain uptake [2, 4]: 3.3±0.4 % ID/g and 3.3 % ID/g; Time of peak brain uptake post injection [2, 4]: 4.5 min; Crossing of the blood-brain-barrier [2, 4]: readily cross the blood-brain-barrier; also recorded: readily crosses the blood-brain-barrier |
| O=C(Cc1ccc(-c2nncnn2)cc1)NCC[18F] [[^18F]537-Tz, 2-(4-(1,2,4,5-tetrazin-3-yl)phenyl)-N-(2-fluoroethyl)acetamide] | – | – | – | – | – | – | – | – | Radiotracer uptake in brain and spine relative to the control group (ASO-TCO conjugate): Higher radiotracer uptake; Brain uptake [3]: 1.7±0.9 % ID |
